From patent publication US10874104B2, “Pesticidally active pryazole derivatives” (SYNGENTA PARTICIPATIONS AG, priority 2016, dated 2020)
Read-outs that look alike come from different tables or passages of the source.

Columns and labels:
Type in all cases: in vivo
[1] = test system: Diabrotica balteata (Corn Root Worm); assay: Diabrotica balteata (corn root worm), sprayed maize sprouts on agar, mortality; conditions: 96 h, application rate 200 ppm, L2 larvae, 4 days after infestation, read-out: mortality
Method: Diabrotica balteata (Corn Root Worm):
Maize sprouts placed onto an agar layer in 24-well microtiter plates were treated with aqueous test solutions prepared from 10′000 ppm DMSO stock solutions by spraying. After drying, the plates were infested with L2 larvae (6 to 10 per well). The samples were assessed for mortality 4 days after infestation.

[2] = test system: Euschistus heros (Neotropical Brown Stink Bug); assay: Euschistus heros (neotropical brown stink bug), feeding/contact activity, mortality; conditions: 120 h, application rate 200 ppm, N2 nymphs, 5 days after infestation, read-out: mortality
Method: Euschistus heros (Neotropical Brown Stink Bug): Feeding/contact activity
Soybean leaves on agar in 24-well microtiter plates were sprayed with aqueous test solutions prepared from 10′000 ppm DMSO stock solutions. After drying the leaves were infested with N2 nymphs. The samples were assessed for mortality 5 days after infestation.

[3] = test system: Myzus persicae (Green Peach Aphid); assay: Myzus persicae (green peach aphid), feeding/contact activity, mortality; conditions: 144 h, application rate 200 ppm, aphid population of mixed ages, 6 days after infestation
Method: Myzus persicae (Green Peach Aphid): Feeding/Contact Activity
(§1) Sunflower leaf discs were placed onto agar in a 24-well microtiter plate and sprayed with aqueous test solutions prepared from 10′000 ppm DMSO stock solutions. After drying, the leaf discs were infested with an aphid population of mixed ages. The samples were assessed for mortality 6 days after infestation.

[4] = test system: Plutella xylostella (Diamond Back Moth); assay: Plutella xylostella (diamond back moth), feeding/contact activity on artificial diet, mortality; conditions: 120 h, application rate 200 ppm, L2 larvae on artificial diet, 5 days after infestation, read-out: mortality
Method: Plutella xylostella (Diamond Back Moth): Feeding/Contact Activity
24-well microtiter plates with artificial diet were treated with aqueous test solutions prepared from 10′000 ppm DMSO stock solutions by pipetting. After drying, the plates were infested with L2 larvae (10 to 15 per well). The samples were assessed for mortality 5 days after infestation.

[5] = test system: Spodoptera littoralis (Egyptian Cotton Leaf Worm); assay: Spodoptera littoralis (Egyptian cotton leaf worm), feeding/contact activity, mortality; conditions: 72 h, application rate 200 ppm, L1 larvae, 3 days after infestation, read-out: mortality
Method: Spodoptera littoralis (Egyptian Cotton Leaf Worm): Feeding/Contact Activity
Cotton leaf discs were placed onto agar in 24-well microtiter plates and sprayed with aqueous test solutions prepared from 10′000 ppm DMSO stock solutions. After drying the leaf discs were infested with five L1 larvae. The samples were assessed for mortality 3 days after infestation.

[6] = test system: Tetranychus urticae (Two-Spotted Spider Mite); assay: Tetranychus urticae (two-spotted spider mite), feeding/contact activity, mortality; conditions: 192 h, application rate 200 ppm, mixed population (mobile stages), 8 days after infestation
Method: Tetranychus urticae (Two-Spotted Spider Mite): Feeding/Contact Activity
Bean leaf discs on agar in 24-well microtiter plates were sprayed with aqueous test solutions prepared from 10′000 ppm DMSO stock solutions. After drying the leaf discs were infested with a mite population of mixed ages. The samples were assessed for mortality on mixed population (mobile stages) 8 days after infestation.

[7] = test system: Thrips tabaci (Onion Thrips); assay: Thrips tabaci (onion thrips), feeding/contact activity, mortality; conditions: 144 h, application rate 200 ppm, thrips population of mixed ages, 6 days after infestation, read-out: mortality
Method: Thrips tabaci (Onion Thrips): Feeding/Contact Activity
as §1, with “on” for “onto”, “in” for “in a”, “plates” for “plate”, “drying” for “drying,”, “a thrips” for “an aphid”

[8] = test system: Plutella xylostella (Diamond Back Moth, Larvicide L-2/3); assay: Biological comparison: insecticidal activity against Plutella xylostella, larvicide L-2/3, sprayed Chinese cabbage plants; conditions: 120 h
Method: Biological Comparison Data:
Compound A is disclosed in WO2014/122083 as example (Ic-2) (p. 82, Table 3). The activities of compounds A is compared with the activities of compound 41 and 42, according to the present invention. The tests are carried out at different concentrations (ppm).
a) Insecticidal Activity Against Plutella xylostella (Diamond Back Moth, Larvicide L-2/3, Feeding/Contact)
Chinese cabbage plants are sprayed with diluted test solutions in an application chamber. 1 day after treatment, excised leaves are placed in petri dishes and infested with 10 L2 (2 replicates). Samples are checked 5 days after infestation for mortality, feeding behavior, and growth regulation.

[9] = concentration 0.0125 ppm, L2 larvae, 5 days after infestation, read-out: Mortality (%)
[10] = concentration 0.05 ppm, L2 larvae, 5 days after infestation, read-out: Mortality (%)
[11] = concentration 0.2 ppm, L2 larvae, 5 days after infestation, read-out: Mortality (%)
[12] = concentration 0.8 ppm, L2 larvae, 5 days after infestation, read-out: Mortality (%)

SMILES	mortality at 200 ppm [1] [%]	mortality at 200 ppm [2] [%]	mortality at 200 ppm [3] [%]	mortality at 200 ppm [4] [%]	mortality at 200 ppm [5] [%]	mortality at 200 ppm [6] [%]	mortality at 200 ppm [7] [%]	mortality at 0.0125 ppm [8, 9] [%]	mortality at 0.05 ppm [8, 10] [%]	mortality at 0.2 ppm [8, 11] [%]	mortality at 0.8 ppm [8, 12] [%]	mortality at 0.0125 ppm [8] [%]	mortality at 0.05 ppm [8] [%]	mortality at 0.2 ppm [8] [%]	mortality at 0.8 ppm [8] [%]
CCN(C(=O)c1cc(-c2cnn(-c3c(OC(F)F)c(C(F)(F)C(F)(F)F)nn3C)c2)ccc1Cl)C1(C#N)CC1 [Compound 42]	≥ 80	≥ 80	≥ 80	≥ 80	≥ 80	≥ 80	≥ 80	95	100	100	100	–	–	–	–
CN(C(=O)c1cc(-c2cnn(-c3c(OC(F)F)c(C(F)(F)C(F)(F)F)nn3C)c2)ccc1Cl)C1(C#N)CC1 [Compound 41]	≥ 80	≥ 80	–	≥ 80	≥ 80	≥ 80	≥ 80	90	100	100	100	–	–	–	–
Cn1nc(C(F)(F)C(F)(F)F)c(C2CC2)c1-n1cc(-c2ccc(Cl)c(C(=O)NC3(C#N)CC3)c2)cn1 [Compound 9]	≥ 80	≥ 80	≥ 80	≥ 80	≥ 80	≥ 80	≥ 80	–	–	–	–	–	–	–	–
Cn1nc(C(F)(F)C(F)(F)F)c(C(F)(F)F)c1-n1cc(-c2ccc(Cl)c(C(=O)NC3(C#N)CC3)c2)cn1 [Cpd A, reference compound]	–	–	–	–	–	–	–	–	–	–	–	35	85	100	100
C=Cc1c(C(F)(F)C(F)(F)F)nn(C)c1-n1cc(-c2ccc(Cl)c(C(=O)NC3CC3)c2)cn1 [Compound 16, 2-Chloro-N-cyclopropyl-5-[1-[2-methyl-5-(1,1,2,2,2-pentafluoroethyl)-4-vinyl-pyrazol-3-yl]pyrazol-4-yl]benzamide]	≥ 80	≥ 80	≥ 80	≥ 80	≥ 80	≥ 80	≥ 80	–	–	–	–	–	–	–	–
Cn1nc(C(F)(F)C(F)(F)F)c([S+]([O-])C2CC2)c1-n1cc(-c2ccc(Cl)c(C(=O)NC3CC3)c2)cn1 (stereo not shown) [Compound 34]	≥ 80	≥ 80	≥ 80	≥ 80	≥ 80	≥ 80	≥ 80	–	–	–	–	–	–	–	–
Cn1nc(C(F)(F)C(F)(F)F)c([S+]([O-])C2CC2)c1-n1cc(-c2ccc(Cl)c(C(=O)NC3(C#N)CC3)c2)cn1 (stereo not shown) [Compound 36]	≥ 80	≥ 80	≥ 80	≥ 80	≥ 80	≥ 80	≥ 80	–	–	–	–	–	–	–	–
Cn1nc(C(F)(F)C(F)(F)F)c(OC(F)F)c1-n1cc(-c2cnc(Cl)c(C(=O)NC3CC3)c2)cn1 [Compound 22]	≥ 80	≥ 80	≥ 80	≥ 80	≥ 80	≥ 80	≥ 80	–	–	–	–	–	–	–	–
Cn1nc(C(F)(F)C(F)(F)F)c(SC2CC2)c1-n1cc(-c2ccc(Cl)c(C(=O)NC3(C#N)CC3)c2)cn1 [Compound 19]	≥ 80	≥ 80	≥ 80	≥ 80	≥ 80	≥ 80	≥ 80	–	–	–	–	–	–	–	–
